The subject of one test is S. aureus cells. The experiment in a line: Survival of cells (drop assay). Type of test: cell-based, Staphylococcus aureus. The note with it: 200 μM. How it is done: FIG. 2. NPIMA eradicates Escherichia coli, Pseudomonas aeruginosa, and Staphylococcus aureus exponential cells. Survival after 6 hr for (a) E. coli BW25113 with NPIMA and 5-iodoindole at 100 μM, (b) P. aeruginosa PA14 with NPIMA and 5-iodoindole at 100 μM, and (c) S. aureus with NPIMA and 5-iodoindole at 200 μM. Asterisk indicates no viable cells detected. NPIMA, 5-nitro-3-phenyl-1H-indol-2-yl-methylamine hydrochloride.
For bacterial viability, cells were washed twice with 0.85% NaCl, resuspended in 1×PBS, and cell counts were determined via the drop assay (Donegan, Matyac, Seidler, & Porteous, 1991). For human cell viability, pre-cultured human cancer HT-29 cells were dispensed in 98 μl in 96-well plates with approximately 5,000 cells/well. NPIMA was added (2 μl) to produce concentrations of 5, 10, 100, and 200 μM. For controls, Triton X-100 (positive control) and DMSO (negative solvent control), were used, and the medium was used for background. Plates were incubated in a humidified incubator (37° C., 5% CO2) for 24 hr. Cell viability was determined via a cell counting kit (CCK-8 Kit, ab228554; Abcam), and cytotoxicity was determined via the lactate dehydrogenase (LDH) assay (LDH Assay Kit, MK401; Takara).

The next test concerns S. aureus. The experiment in a line: Lysis assays (total protein and DNA in supernatants). Type of test: cell-based, Staphylococcus aureus. The note with it: 100 μM, 6 hr. The protocol:
FIG. 5. NPIMA lyses Escherichia coli, Pseudomonas aeruginosa, and Staphylococcus aureus. Total protein (a) and DNA (b) found in supernatants as evidence of cell lysis after treatment of cells at a turbidity of 0.8 at 600 nm with 100 μM NPIMA after 1 hr for E. coli and P. aeruginosa and 6 hr for S. aureus. NPIMA, 5-nitro-3-phenyl-1H-indol-2-yl-methylamine hydrochloride.
Exponentially-growing E. coli BW25113 cells (turbidity 0.8 at 600 nm) were washed twice with 0.85% NaCl, resuspended in 1 ml of 1×PBS, and NPIMA (100 μM) was added for 1 hr for E. coli and P. aeruginosa and 6 hr for S. aureus with shaking at 250 rpm (0.1% DMSO was used as the negative control). Cell supernatants were collected after centrifuging at 6,500 g (4° C. for 15 min), and total protein was measured by the Bicinchoninic Acid (BCA) protein assay Kit (Prod #23227; Pierce). DNA in the supernatant (199 μl) was detected by adding 1 μl of Picogreen (P7589; Invitrogen) and incubating for 5 min at room temperature in the dark room. The fluorescence signal was read by a Tecan microplate reader (Infinite M200PRO) with 480 nm excitation and 520 nm emission by utilizing a calibration curved made with plasmid pEX18Ap at 0, 0.004, 0.008, 0.016, 0.063, 0.125, 0.25, and 0.5 ng/μl.

Molecules are shown by their SMILES.

Consider `Cl.NCc1[nH]c2ccc([N+](=O)[O-])cc2c1-c1ccccc1` [NPIMA, [(5-nitro-3-phenyl-1H-indol-2-yl)methyl]amine hydrochloride], for which the “time to eradicate S. aureus cells” value in the test on S. aureus cells stood at 3 h. In addition, in the test with S. aureus, the “DNA released compared with DMSO alone” value turned out to be 1.82±0.05 fold and the “total protein released compared with DMSO alone” value amounted to 2.9±0.1 fold.

These data come from patent US12472185B2, “Methods for killing antibiotic tolerant bacteria” (THE PENN STATE RESEARCH FOUNDATION, priority 2020, dated 2025).
